{
  "source": "paper PMC9744290",
  "about": "“Two apicoplast dwelling glycolytic enzymes provide key substrates for metabolic pathways in the apicoplast and are critical for Toxoplasma growth” (PLOS Pathogens, 2022)",
  "target": "T1, PGK2 (Toxoplasma gondii, UniProt A0A7J6KGR7)",
  "T1 construct": "gene TGRH88_001020; His-SUMO fusion, E. coli BL21(DE3), His-tag resin",
  "T1 sequence (A0A7J6KGR7 1-593)": "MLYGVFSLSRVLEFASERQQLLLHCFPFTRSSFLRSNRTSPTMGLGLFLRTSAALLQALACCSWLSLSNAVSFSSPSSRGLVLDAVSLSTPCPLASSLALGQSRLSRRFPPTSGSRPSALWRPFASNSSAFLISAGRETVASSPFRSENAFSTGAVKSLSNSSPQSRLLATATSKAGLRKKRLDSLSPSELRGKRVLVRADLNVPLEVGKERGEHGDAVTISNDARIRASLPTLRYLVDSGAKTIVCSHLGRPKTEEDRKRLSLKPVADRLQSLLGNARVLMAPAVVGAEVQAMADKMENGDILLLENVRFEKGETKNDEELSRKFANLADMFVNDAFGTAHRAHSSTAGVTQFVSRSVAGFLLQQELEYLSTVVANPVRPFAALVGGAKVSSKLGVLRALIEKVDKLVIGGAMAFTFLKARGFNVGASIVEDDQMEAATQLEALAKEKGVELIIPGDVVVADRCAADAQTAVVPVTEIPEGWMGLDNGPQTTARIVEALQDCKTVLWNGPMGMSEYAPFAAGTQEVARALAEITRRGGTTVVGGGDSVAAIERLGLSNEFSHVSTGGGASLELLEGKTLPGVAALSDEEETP",
  "assay": "NADH-coupled colorimetric PGK assay kit, OD340",
  "format": "biochemical",
  "conditions": "reverse direction of PGK; 0-960 uM substrate, 5 ug/ml enzyme, 2 min",
  "data": [
    {"compound": "O=C(O)[C@H](O)COP(=O)(O)O", "note": "[3-phosphoglycerate]", "values": [
      {"measurement": "NADH-coupled colorimetric PGK assay kit, OD340", "result": "assayed with recombinant enzymes under different concentrations of 3-phosphoglycerate (3-PG)"}
    ]}
  ]
}
